Source: US8633251B2, “Derivatives of aminoalkanols, method of obtaining of aminoalkanols and their use” (Uniwersytet Jagiellonski, priority 2008, dated 2014)
Where a name gives a salt, the structure may show the parent alone. Read-outs that look alike come from different tables or passages of the source.

Assays:
neurotoxicity (rotarod) = test: Neurotoxicity test (TOX), rotarod, mice; type: in vivo
Experimental: (§1) In order to define anticonvulsant activity, screening tests were performed, using animal models of seizures. […] Each substance (after dissolving in methylcellulose) was normally tested in doses 30, 100, and 300 mg/kg body weight (b.w.) (mice) or in 30 and 50 mg/kg b.w. (rats) in two possible routes of administration: intraperitoneal (i.p.) or oral (p.o.). Appropriate tests were performed 0.5 and 4 h after administration of the compound. […] (mice) the tests were also performed in doses 10 and 3 mg/kg b.w.
It is performed with use of rotarod test. The animal is placed on a plastic rod (1 inch in diameter), rotating 6 rpm. The rod is placed on a level discouraging the animal to jump off. […] Neurotoxicity is stated if the animal cannot stay on the rod for 1 min. in any of 3 trials. Normally the test is performed in dose 30 mg/kg b.w. in 4 mice (0.5 h) and in 2 mice (4 h), in the dose 100 mg/kg b.w. in 8 mice (0.5 h) and in 4 mice (4 h) and in the dose 300 mg/kg b.w. in 4 mice (0.5 h) and 2 mice (4 h).

[1] = tested on: maximal electroshock seizures; test: Maximum Electroshock Seizure (MES) test, mice; type: in vivo
Experimental: as §1
Maximum Electroshock Seizure (MES) test is an electric test, verifying activity towards generalized tonic-clonic seizures (grand mal epilepsy). […] Its procedure consists in administration to an animal a mentioned dose, and after 0.5 or 4 h attaching corneal electrodes (after anesthetic eye-drops: 0.5% tetracaine hydrochloride in 0.9% NaCl) and turning on electric current (60 Hz, 0.2 s, 50 mA (mice) or 150 mA (rats)). […] Normally, in the dose 30 mg/kg b.w. the test is done in 1 mouse after 0.5 or 4 h, in the dose 100 mg/kg b.w.—in 3 mice, and in the dose 300 mg/kg b.w.—in 1 mouse.

[2] = mice, dose 100 mg/kg b.w., time 0.5 h
[3] = mice, dose 300 mg/kg b.w., time 0.5 h
[4] = mice, dose 30 mg/kg b.w., time 0.5 h
[5] = mice, dose 300 mg/kg b.w., time 4 h
[6] = Mus musculus, 0.5 h, read-out: MES, No. of protected animals/No. of used animals
[7] = mice, dose 100 mg/kg b.w., time 4 h

Compound | TOX, No. of animals exhibiting motor impairment/no. of used animals (neurotoxicity (rotarod); mouse, in vivo, 300 mg/kg) | MES, No. of protected animals/No. of used animals [1, 2] | MES, No. of protected animals/No. of used animals [1, 4] | TOX, No. of animals exhibiting motor impairment/no. of used animals (neurotoxicity (rotarod); [3]) | TOX, No. of animals exhibiting motor impairment/no. of used animals (neurotoxicity (rotarod); [2]) | also measured
Cc1ccc(C)c(OCCNC(C)CO)c1 (centres unmarked) [Compound 6, R,S-2N-[(2,5-dimethylphenoxy)ethyl]amino-1-propanol] | 4/4 | 3/3 | – | – | – | MES, No. of protected animals/No. of used animals [1, 3]: 1/1
CCC(O)CNCCOc1cc(C)ccc1C (centres unmarked) [Compound 7, R,S-1N-[(2,5-dimethylphenoxy)ethyl]amino-2-butanol] | 4/4 | 3/3 | – | – | – | TOX, No. of animals exhibiting motor impairment/no. of used animals (neurotoxicity (rotarod); mouse, in vivo, 100 mg/kg): 8/8; MES, No. of protected animals/No. of used animals [1, 3]: 1/1
CCC(CO)NCCOc1cc(C)ccc1C (centres unmarked) [Compound 8, R,S-2N-[(2,5-dimethylphenoxy)ethyl]amino-1-butanol] | 4/4 | 3/3 | – | – | – | TOX, No. of animals exhibiting motor impairment/no. of used animals (neurotoxicity (rotarod); mouse, in vivo, 100 mg/kg): 8/8
Cc1cccc(C)c1OCCNC(C)CO.Cl (centres unmarked) [Compound 11a, R,S-2N-[(2,6-dimethylphenoxy)ethyl]amino-1-propanol hydrochloride] | 4/4 | 1/1 | 1/1 | – | – | TOX, No. of animals exhibiting motor impairment/no. of used animals (neurotoxicity (rotarod); mouse, in vivo, 30 mg/kg): 3/4; TOX, No. of animals exhibiting motor impairment/no. of used animals (neurotoxicity (rotarod); mouse, in vivo, 100 mg/kg): 8/8
Cc1cccc(C)c1OCCN[C@H](C)CO [Compound 12a, R-(−)-2N-[(2,6-dimethylphenoxy)ethyl]amino-1-propanol hydrochloride] | – | – | – | – | – | TOX, No. of animals exhibiting motor impairment/no. of used animals (neurotoxicity (rotarod); [5]): 1/1; MES, No. of protected animals/No. of used animals ([1]; mice, dose 100 mg/kg b.w., time 0.5 h, hydrochloride, 100 mg/kg): 3/3
Cc1cccc(C)c1OCCN[C@@H](C)CO.Cl [Compound 13a, S-(+)-2N-[(2,6-dimethylphenoxy)ethyl]amino-1-propanol hydrochloride] | 4/4 | 3/3 | 1/1 | – | – | TOX, No. of animals exhibiting motor impairment/no. of used animals (neurotoxicity (rotarod); mouse, in vivo, 100 mg/kg): 8/8
Cc1cccc(C)c1OCCNC(C)(C)CCO [Compound 15, 3N-[(2,6-dimethylphenoxy)ethyl]amino-3-methyl-1-butanol hydrochloride] | – | – | – | 7/8 | – | TOX, No. of animals exhibiting motor impairment/no. of used animals (neurotoxicity (rotarod); mice, dose 10 mg/kg b.w., time 0.5 h): 7/8; TOX, No. of animals exhibiting motor impairment/no. of used animals (neurotoxicity (rotarod); [4]): 4/4; responders at 10 mg/kg [1, 6]: 100%; responders at 300 mg/kg [1, 6]: 100%
Cc1cccc(C)c1OCCN[C@H](CO)C(C)C [Compound 16, L-2N-[(2,6-dimethylphenoxy)ethyl]amino-3-methyl-1-butanol hydrochloride] | – | – | – | 4/4 | 7/8 | responders at 100 mg/kg [1, 6]: 100%
Cc1cccc(C)c1OCCNCCCCCO [Compound 17, 5N-[(2,6-dimethylphenoxy)ethyl]amino-1-pentanol hydrochloride] | – | – | – | 4/4 | 7/8 | TOX, No. of animals exhibiting motor impairment/no. of used animals (neurotoxicity (rotarod); [5]): 1/1; responders at 100 mg/kg [1, 6]: 100%
Cc1cccc(C)c1OCCNCC(O)c1ccccc1 (centres unmarked) [Compound 19, R,S-2N-[(2,6-dimethylphenoxy)ethyl]amino-1-phenylethanol] | – | 3/3 | 1/1 | 4/4 | 8/8 | TOX, No. of animals exhibiting motor impairment/no. of used animals (neurotoxicity (rotarod); [4]): 1/4
Cc1cccc(C)c1OCCNC[C@@H](O)c1ccccc1 [Compound 21, S-(+)-2N-[(2,6-dimethylphenoxy)ethyl]amino-1-phenylethanol] | – | 3/3 | 1/1 | 4/4 | 7/8 | –
Cc1cccc(Cl)c1OCCNC(C)CO (centres unmarked) [Compound 24, R,S-2N-[(2-chlor-6-methylphenoxy)ethyl]amino-1-propanol] | – | 3/3 | – | 4/4 | 5/8 | –
CCC(O)CNCCOc1c(C)cccc1Cl (centres unmarked) [Compound 25, R,S-1N-[(2-chlor-6-methylphenoxy)ethyl]amino-2-butanol] | – | – | 1/1 | 4/4 | 8/8 | –
CCC(CO)NCCOc1c(C)cccc1Cl.Cl (centres unmarked) [Compound 26a, R,S-2N-[(2-chlor-6-methylphenoxy)ethyl]amino-1-butanol hydrochloride] | – | 1/1 | 1/1 | 4/4 | 8/8 | TOX, No. of animals exhibiting motor impairment/no. of used animals (neurotoxicity (rotarod); [4]): 3/4; TOX, No. of animals exhibiting motor impairment/no. of used animals (neurotoxicity (rotarod); [7]): 1/4
CC[C@H](CO)NCCOc1c(C)cccc1Cl.Cl [Compound 27a, R-(−)-2N-[(2-chlor-6-methylphenoxy)ethyl]amino-1-butanol hydrochloride] | – | 2/3 | 1/1 | 4/4 | 7/8 | –
CC[C@@H](CO)NCCOc1c(C)cccc1Cl.Cl [Compound 28a, S-(+)-2N-[(2-chlor-6-methylphenoxy)ethyl]amino-1-butanol hydrochloride] | – | 1/1 | – | 4/4 | 5/8 | –
Cc1cccc(Cl)c1OCCNC(C)(CO)CO [Compound 29, 2N-[(2-chlor-6-methylphenoxy)ethyl]amino-2-methyl-1,3-propandiol] | 4/4 | 2/3 | – | – | – | TOX, No. of animals exhibiting motor impairment/no. of used animals (neurotoxicity (rotarod); mouse, in vivo, 100 mg/kg): 4/8
Cc1cccc(Cl)c1OCCNCC(O)c1ccccc1 (centres unmarked) [Compound 31, R,S-2N-[(2-chlor-6-methylphenoxy)ethyl]amino-1-phenylethanol] | – | 3/3 | 1/1 | 4/4 | 8/8 | MES, No. of protected animals/No. of used animals [1, 3]: 1/1
CCC(O)CNCCOc1ccc(Cl)cc1C (centres unmarked) [Compound 34, R,S-1N-[(4-chlor-2-methylphenoxy)ethyl]amino-2-butanol] | – | 3/3 | – | 4/4 | 7/8 | TOX, No. of animals exhibiting motor impairment/no. of used animals (neurotoxicity (rotarod); [4]): 1/4
CCC(CO)NCCOc1ccc(Cl)cc1C (centres unmarked) [Compound 35, R,S-2N-[(4-chlor-2-methylphenoxy)ethyl]amino-1-butanol] | – | 3/3 | – | 4/4 | 8/8 | –
Cc1cc(Cl)ccc1OCCNC(C)(C)CO [Compound 36, 2N-[(4-chlor-2-methylphenoxy)ethyl]amino-2-methyl-1-propanol] | – | 3/3 | – | 4/4 | – | –
Cc1cc(C)c(C)c(OCCNC(C)CO)c1 (centres unmarked) [Compound 38, R,S-2N-[(2,3,5-trimethylphenoxy)ethyl]amino-1-propanol] | 4/4 | 3/3 | 1/1 | – | – | MES, No. of protected animals/No. of used animals [1, 7]: 2/2
CCC(CO)NCCOc1cc(C)cc(C)c1C (centres unmarked) [Compound 39, R,S-2N-[(2,3,5-trimethylphenoxy)ethyl]amino-1-butanol] | 4/4 | 3/3 | 1/1 | – | – | TOX, No. of animals exhibiting motor impairment/no. of used animals (neurotoxicity (rotarod); mouse, in vivo, 100 mg/kg): 7/8; MES, No. of protected animals/No. of used animals [1, 7]: 1/3
CC[C@H](CO)NCCOc1cc(C)cc(C)c1C [Compound 40, R-(−)-2N-[(2,3,5-trimethylphenoxy)ethyl]amino-1-butanol] | – | – | – | 4/4 | 4/8 | responders at 30 mg/kg ([1]; Mus musculus, mice, dose 30 mg/kg b.w., time 0.5 h, read-out: MES, No. of protected animals/No. of used animals): 100%; responders at 100 mg/kg ([1]; Mus musculus, mice, dose 100 mg/kg b.w., time 0.5 h, read-out: MES, No. of protected animals/No. of used animals (converted)): 66.7%; responders at 100 mg/kg ([1]; Mus musculus, mice, dose 100 mg/kg b.w., time 4 h, read-out: MES, No. of protected animals/No. of used animals (converted)): 33.3%
